Laboratory results published in ChEMBL document CHEMBL5030532, “Synthesis and Evaluation of Galloyl Conjugates of Flavanones as BMP-2 Upregulators with Promising Bone Anabolic and Fracture Healing Properties” (J Med Chem, 2021).
The source made the active and inactive calls. The calls are words filed in the database; no cut-off is given here.

Legend:
[1] = Induction of osteogeneis in rat calvarial osteoblast cells assessed as fold upregulation of ALP gene expression at 100 pM measured after 48 hrs by qPCR analysis relative to control; type: functional
[2] = tested on: Calvarial osteoblast; assay: Induction of osteoblast differentiation in rat Calvaria osteoblast cells measured assessed as maximal increase in alkaline phosphatase activity incubated for 48 hrs using PNPP as substrate; type: functional
[3] = tested on: Calvarial osteoblast; assay: Cytotoxicity against rat Calvarial osteoblast cells assessed as viable cells measured at 0.000001 to 1 uM measure after 48 hrs by cell viability assay; type: cell-based; conditions: dose lower 1e-06 µM, dose upper 1 µM
[4] = tested on: Calvarial osteoblast; assay: Induction of rat Calvarial osteoblast cell proliferation at 0.000001 to 1 uM measured after 48 hrs by MTT assay; type: functional, tissue-based; conditions: dose lower 1e-06 µM, dose upper 1.0 µM
[5] = tested on: Calvarial osteoblast; assay: Induction of mineralization in rat Calvarial osteoblast cells measured at 10 nM measured for 14 days by Cetylpyridinium chloride method; type: functional, tissue-based; conditions: time 14.0 day
[6] = tested on: Calvarial osteoblast; assay: Induction of osteogenesis in rat calvarial osteoblast cells assessed as fold upregulation of BMP-2 gene expression at 10 nM measured after 48 hrs by qPCR analysis relative to control; type: functional
[7] = Induction of osteogeneis in rat calvarial osteoblast cells assessed as fold upregulation of Col1 gene expression at 10 nM measured after 48 hrs by qPCR analysis relative to control; type: functional
[8] = Induction of osteogeneis in rat calvarial osteoblast cells assessed as fold upregulation of RUNX2 gene expression at 10 nM measured after 48 hrs by qPCR analysis relative to control; type: functional
[9] = Induction of osteogeneis in rat calvarial osteoblast cells assessed as fold upregulation of ALP gene expression at 1 pM measured after 48 hrs by qPCR analysis relative to control; type: functional
[10] = Induction of osteogeneis in rat calvarial osteoblast cells assessed as fold upregulation of BMP-2 gene expression at 1 pM measured after 48 hrs by qPCR analysis relative to control; type: functional
[11] = tested on: Calvarial osteoblast; assay: (§1) Induction of osteogeneis in rat calvarial osteoblast cells assessed as fold upregulation of Col1 gene expression at 1 pM measured after 48 hrs by qPCR analysis relative to control; type: functional
[12] = Induction of osteogeneis in rat calvarial osteoblast cells assessed as fold upregulation of RUNX2 gene expression at 1 pM measured after 48 hrs by qPCR analysis relative to control; type: functional
[13] = tested on: Calvarial osteoblast; assay: Induction of mineralization in rat Calvarial osteoblast cells measured at 100 pM measured for 14 days by Cetylpyridinium chloride method; type: functional, tissue-based; conditions: time 14.0 day
[14] = Induction of osteogeneis in rat calvarial osteoblast cells assessed as fold upregulation of BMP-2 gene expression at 100 pM measured after 48 hrs by qPCR analysis relative to control; type: functional
[15] = Induction of osteogeneis in rat calvarial osteoblast cells assessed as fold upregulation of Col1 gene expression at 100 pM measured after 48 hrs by qPCR analysis relative to control; type: functional
[16] = tested on: Calvarial osteoblast; assay: Induction of osteoblast differentiation in rat Calvaria osteoblast cells measured assessed as increase in alkaline phosphatase activity at 1 pM incubated for 48 hrs using PNPP as substrate; type: functional, cell-based
[17] = tested on: Calvarial osteoblast; assay: Induction of osteoblast differentiation in rat Calvaria osteoblast cells measured assessed as increase in alkaline phosphatase activity at 10 pM incubated for 48 hrs using PNPP as substrate; type: functional, cell-based
[18] = tested on: Calvarial osteoblast; assay: Induction of osteoblast differentiation in rat Calvaria osteoblast cells measured assessed as increase in alkaline phosphatase activity at 0.000001 to 1 uM incubated for 48 hrs using PNPP as substrate; type: functional, cell-based; conditions: dose lower 1e-06 µM, dose upper 1.0 µM
[19] = tested on: Calvarial osteoblast; assay: Induction of mineralization in rat Calvarial osteoblast cells measured at 1 pM measured for 14 days by Cetylpyridinium chloride method; type: functional, tissue-based; conditions: time 14.0 day
[20] = as §1; type: functional
[21] = tested on: Calvarial osteoblast; assay: Induction of osteogenesis in rat calvarial osteoblast cells assessed as upregulation of BMP-2 protein expression at 1 pM measured after 48 hrs by immunoblotting analysis; type: functional, cell-based
[22] = tested on: Calvarial osteoblast; assay: Induction of osteogeneis in rat calvarial osteoblast cells assessed as upregulation of RUNX2 protein expression at 1 pM measured after 48 hrs by immunoblotting analysis; type: functional, tissue-based
[23] = tested on: Calvarial osteoblast; assay: Induction of osteoblast differentiation in rat Calvaria osteoblast cells measured assessed as increase in alkaline phosphatase activity at 0.000001 to 1 uM incubated for 48 hrs using PNPP as substrate in presence of noggin; type: functional, cell-based; conditions: dose lower 1e-06 µM, dose upper 1.0 µM
[24] = In vivo induction of osteogenic activity in neonatal rat pups assessed as fold increase in RUNX2 gene expression in calvarial tissue at 5 mg/kg, sc administered for 6 days; type: functional, Calvaria; conditions: time 6 day
[25] = tested on: Rattus norvegicus; assay: In vivo induction of osteogenic activity in neonatal rat pups assessed as fold increase in BMP-2 gene expression in calvarial tissue at 5 mg/kg, sc administered for 6 days; type: functional, organism-based; conditions: Calvaria, time 6.0 day
[26] = In vivo induction of osteogenic activity in neonatal rat pups assessed as fold increase in OCN gene expression in calvarial tissue at 5 mg/kg, sc administered for 6 days; type: functional, Calvaria; conditions: time 6 day
[27] = In vivo induction of osteogenic activity in neonatal rat pups assessed as fold increase in OCN gene expression in calvarial tissue at 10 mg/kg, sc administered for 6 days; type: functional, Calvaria; conditions: time 6 day
[28] = tested on: Rattus norvegicus; assay: Induction of new bone formation in rat pups assessed as mineral apposition rate in calvaria at 5 mg/kg, sc measured after 5 days by fluorescent microscopy by relative to control; type: functional, organism-based; conditions: time 5.0 day
[29] = tested on: Rattus norvegicus; assay: Induction of new bone formation in rat pups assessed as mineralized bone formation in calvaria by measuring bone formation rate at 5 mg/kg, sc measured after 5 days by fluorescent microscopy by relative to control; type: functional, organism-based; conditions: time 5.0 day
[30] = tested on: Rattus norvegicus; assay: Induction of new bone formation in rat pups assessed as mineralized bone formation in calvaria by measuring bone formation rate at 10 mg/kg, sc measured after 5 days by fluorescent microscopy by relative to control; type: functional, organism-based; conditions: time 5.0 day
[31] = tested on: Rattus norvegicus; assay: Induction of new bone formation in rat pups assessed as mineralized bone formation in calvaria by measuring increase in calvarial thickness at 5 mg/kg, sc measured after 5 days by Hematoxylin and eosin staining based quantitative histology; type: functional, organism-based; conditions: time 5.0 day
[32] = tested on: Rattus norvegicus; assay: Induction of bone regeneration in adult rat femur osteotomy model assessed as increase in bone volume/tissue volume fraction measured at 5 mg/kg, po for 14 days by microCT analysis relative to control; type: functional; conditions: time 14 day
[33] = tested on: Rattus norvegicus; assay: Induction of bone regeneration in adult rat femur osteotomy model assessed as increase in trabecular thickness measured at 5 mg/kg, po for 14 days by microCT analysis relative to control; type: functional, organism-based; conditions: time 14.0 day
[34] = tested on: Rattus norvegicus; assay: Induction of bone regeneration in adult rat femur osteotomy model assessed as increase in trabecular number measured at 5 mg/kg, po for 14 days by microCT analysis relative to control; type: functional, organism-based; conditions: time 14.0 day
[35] = Induction of bone regeneration in adult rat femur osteotomy model assessed as fold increase in OCN expression in fracture calluses measured at 5 mg/kg, po for 14 days by […] relative to control; type: functional; conditions: time 14 day
[36] = Induction of bone regeneration in adult rat femur osteotomy model assessed as fold increase in Col1 gene expression in fracture calluses measured at 5 mg/kg, po for 14 days by […] relative to control; type: functional; conditions: time 14 day
[37] = tested on: Rattus norvegicus; assay: Induction of bone regeneration in adult rat femur osteotomy model assessed as restoration of bone morphology measured at 5 mg/kg, po for 14 days by toluidine blue staining based analysis; type: functional, organism-based; conditions: time 14.0 day
[38] = Stability of the compound in simulated gastric acid at pH 1.2 measured after 1 hr by LC-MS/MS analysis; type: ADME; conditions: read-out: Stability
[39] = Stability of the compound in simulated intestinal acid at pH 6.5 measured after 1 hr by LC-MS/MS analysis; type: ADME; conditions: read-out: Stability
[40] = Stability in rat plasma after 1 hr incubation by LC-MS/MS analysis; type: ADME, cell-free; conditions: read-out: Stability
[41] = Stability in rat liver microsomes after 1 hr incubation by LC-MS/MS analysis; type: ADME, Microsome
[42] = Cmax in Sprague-Dawley rat at 5 mg/kg, po by LC-MS/MS analysis; type: ADME, organism-based; design: route oral, dose 5 mg/kg; conditions: in vivo
[43] = Cmax in Sprague-Dawley rat at 10 mg/kg, po by LC-MS/MS analysis; type: ADME, organism-based; design: route oral, dose 10 mg/kg; conditions: in vivo
[44] = AUC in Sprague-Dawley rat at 5 mg/kg, po by LC-MS/MS analysis; type: ADME, organism-based; design: dose 5 mg/kg; conditions: in vivo
[45] = AUC in Sprague-Dawley rat at 10 mg/kg, po by LC-MS/MS analysis; type: ADME, organism-based; design: dose 10 mg/kg; conditions: in vivo
[46] = Volume of distribution in Sprague-Dawley rat at 10 mg/kg, po by LC-MS/MS analysis; type: ADME, organism-based; conditions: in vivo
[47] = Volume of distribution in Sprague-Dawley rat at 5 mg/kg, po by LC-MS/MS analysis; type: ADME, organism-based; conditions: in vivo
[48] = Clearance in Sprague-Dawley rat at 10 mg/kg, po by LC-MS/MS analysis; type: ADME, organism-based; conditions: in vivo
[49] = Clearance in Sprague-Dawley rat at 5 mg/kg, po by LC-MS/MS analysis; type: ADME, organism-based; conditions: in vivo
[50] = Half life in Sprague-Dawley rat at 5 mg/kg, po by LC-MS/MS analysis; type: ADME, organism-based; conditions: in vivo
[51] = Half life in Sprague-Dawley rat at 10 mg/kg, po by LC-MS/MS analysis; type: ADME, organism-based; conditions: in vivo
[52] = MRT in Sprague-Dawley rat at 5 mg/kg, po by LC-MS/MS analysis; type: ADME, organism-based; conditions: in vivo
[53] = MRT in Sprague-Dawley rat at 10 mg/kg, po by LC-MS/MS analysis; type: ADME, organism-based; conditions: in vivo
[54] = tested on: Rattus norvegicus; assay: Induction of bone regeneration in adult rat femur osteotomy model assessed as increase in calcein labeled callus measured at 5 mg/kg, po for 14 days by calcein labeling study relative to control; type: functional; conditions: time 14 day

COc1cc(C(=O)Nc2ccc3c(c2)C(O)CC(c2cccc(C)c2)O3)cc(OC)c1OC (stereo not given)
fold change (FC) [1]: 2.3
ECmax [2]: 100 pM
Activity [3]: Non-Toxic
Activity [4]: Active
Activity [5]: Active
fold change (FC) [6]: 1.83
fold change (FC) [7]: 1.55
fold change (FC) [8]: 1.8

COc1cc(C(=O)Nc2ccc3c(c2)C(=O)CC(c2ccc(C(C)(C)C)cc2)O3)cc(OC)c1OC (stereo not given)
ECmax [2]: 10 pM
Activity [3]: Non-Toxic
Activity [4]: Toxic
Activity [5]: Active
fold change (FC) [9]: 2.8
fold change (FC) [10]: 1.7
Activity [11]: inactive
fold change (FC) [12]: 1.9

COc1cc(C(=O)Nc2ccc3c(c2)C(=O)CC(c2ccccc2)O3)cc(OC)c1OC (stereo not given)
fold change (FC) [1]: 1.3
ECmax [2]: 10 pM
Activity [3]: Non-Toxic
Activity [13]: Active
fold change (FC) [12]: 2
fold change (FC) [14]: 1.9
fold change (FC) [15]: 1.8

COc1cc(C(=O)O)cc(OC)c1OC
Activity [16]: Active
Activity [17]: Active

COc1cccc(C2CC(=O)c3cc([N+](=O)[O-])ccc3O2)c1 (stereo not given)
Activity [16]: Active
Activity [17]: Active

COc1cccc([C@@H]2CC(=O)c3cc(NC(=O)c4cc(OC)c(OC)c(OC)c4)ccc3O2)c1
Activity [18]: Active

COc1cccc([C@H]2CC(=O)c3cc(NC(=O)c4cc(OC)c(OC)c(OC)c4)ccc3O2)c1
Activity [18]: Active

O=C(O)c1cc(O)c(O)c(O)c1
Activity [16]: Active
Activity [17]: Active

COc1cccc(C2CC(=O)c3cc(NC(=O)c4cc(OC)c(OC)c(OC)c4)ccc3O2)c1 (racemic)
ECmax [2]: 1000 pM
Activity [3]: Non-Toxic
Activity [4]: Toxic
Activity [19]: Active
fold change (FC) [9]: 5.5
fold change (FC) [10]: 4.4
fold change (FC) [20]: 2.9
fold change (FC) [12]: 3.7
Activity [21]: Active
Activity [16]: Active
Activity [17]: Active
Activity [22]: Active
Activity [23]: inactive
fold change (FC) [24]: 2
Activity [25]: Dose-Dependent Effect
fold change (FC) [26]: 18
fold change (FC) [27]: 10
Activity [28]: inactive
Activity [29]: Active
Activity [30]: Active
Activity [31]: Active
Activity [32]: 44.3%
Activity [33]: Active
Activity [34]: Active
fold change (FC) [35]: 2.2
fold change (FC) [36]: 2.5
Activity [37]: Active
remaining at 1 h [38]: 69%
remaining at 1 h [39]: 88%
remaining at 1 h [40]: 89%
Stability [41]: Stable
Cmax [42]: 736 ng/mL
Cmax [43]: 858 ng/mL
AUC [44]: 4820 ng·h/mL
AUC [45]: 6530 ng·h/mL
Vdss [46]: 12.99 L/kg
Vdss [47]: 8.42 L/kg
CL/F [48]: 25.7 mL/min/kg
CL/F [49]: 17.3 mL/min/kg
half-life [50]: 5.6 h
half-life [51]: 5.85 h
MRT [52]: 7.68 h
MRT [53]: 9.17 h
Activity [54]: 130%
